The values below come from US20250185651A1, “COMPOSITION FOR PESTICIDE PHYTOTOXICITY REDUCTION COMPRISING AMINO ACID” (CJ CheilJedang Corporation, priority 2021, published 2025).

The test system of the assay is soybeans (Glycine max). In words: Example 1: soybean seed treatment with fluensulfone plus a single amino acid (pesticide phytotoxicity reduction). It is filed as in vivo. The settings on record: conclusion of Example 1; soybean seeds, 0.1% (w/v) amino acid. The protocol:
To 10 g of seeds of soybeans (scientific name: Glycine max), fluensulfone (Nimitz, ADAMA, 40% (w/v) Fluensulfone-containing product) or fluensulfone with 1 ml of 0.1% (w/v) amino acid solution were treated as a pesticide. […] The treatment groups were as Table 1 below.
After mixing the solutions of each group well, they were sufficiently mixed for about 1 minute so that the solutions were evenly applied to soybean seeds. After than, they were taken out in a sample dish and air-drying was performed until the solutions were dried.
Soybean seeds were sown, and the germination rate was measured by counting the number of germinated seeds among all the seeds in 7 days after sowing, and this was shown in FIG. 1.
In 20 days after sowing, the length of the shoots (from the ground to the growth point) was measured with a ruler and this was shown in FIG. 2, and the photographs of the shoots and roots were shown in FIG. 3 and FIG. 4.
On to `N[C@@H](CCC(=O)O)C(=O)O.[Na]` [sodium glutamic acid], for which the phytotoxicity by fluensulfone entry was “reduced”. `CC(C)C[C@H](N)C(=O)O` [leucine]: the phytotoxicity by fluensulfone entry is on record as “reduced”. In the case of `N[C@@H](Cc1c[nH]cn1)C(=O)O` [histidine] it was “reduced”.
